From US20190307843A1, “SINGLE DOSE METHODS FOR PREVENTING AND TREATING FUNGAL INFECTIONS” (Cidara Therapeutics, Inc., priority 2016, published 2019)
“And” between values parts separate entries of the source, which are not always exact repeats. Identical values can stand only once. Starred links: 1 amine or outer side, 2 acyl side, 3 side chain; linkers in the order of their positions; H or OH if unused. Positions of bridges follow the written chain, without caps; N, C: chain ends. Non-standard residues stand in square brackets, D forms with d. Residues, ends and D or L forms follow the SMILES beside them. *: point of attachment. hTyr(3S-OH,4S-OH,3'-OSO3H) = N[C@H](C(=O)O)[C@H](O)[C@@H](O)c1ccc(O)c(OS(=O)(=O)O)c1; Orn(4R-OH,5R-OH) = O=C([C@H](C[C@@H](O)[C@@H](O)N[*:3])N[*:1])[*:2]; Pro(3S-OH,4S-Me) = C[C@H]1CN[C@H](C(=O)O)[C@H]1O; X1 = CCCCCOc1ccc(-c2cc(-c3ccc(C(=O)*)cc3)no2)cc1; Gln(3R-OH) = NC(=O)C[C@@H](O)[C@H](N)C(=O)O; Hyp = O=C(O)[C@@H]1C[C@@H](O)CN1

How the values were obtained:
[1] = tested on: A. fumigatus strain AF293; assay: Murine model of pulmonary aspergillosis (Example 13), terminal lung burden; format: in vivo, Aspergillus fumigatus
Method: (§1) A secondary endpoint for the study was terminal lung tissue burden. Immediately following confirmation of death, carcasses were frozen at −20° C. prior to tissue dissection and processing. The frozen carcasses were thawed at room temperature and the lungs removed and placed into pre-weighed bead-beating tubes containing 2 mL of PBS and subjected to mechanical disruption. Organ homogenates were diluted further in PBS and quantitatively cultured for A. fumigatus onto SABC and incubated at 30° C. for 24-48 hours. In addition, a 300 μL aliquot of the undiluted lung tissue homogenate was stored at −80° C. for possible optional assessment of burden by qPCR.

A. fumigatus AF293 [2] = assay: Pulmonary aspergillosis, prophylaxis, neutropenic ICR mice (Examples 17, 18), survival; format: in vivo, Aspergillus fumigatus; conditions: micafungin 5 mg/kg
Method: Intranasal infection with A. fumigatus AF293 (10^5 CFU/mouse) on Day 0. Prophylaxis CD101 as a single dose (IP; 5, 10, 20 mg/kg) or posaconazole (PO; 2 and 10 mg/kg) 1 day prior to infection. Survival monitored for 10 days.
Intranasal challenge with A. fumigatus AF293 (10^5 CFU/mouse) was initiated on Day 0 and prophylaxis with CD101 as a single dose (IP; 5, 10, 20 mg/kg) or posaconazole (PO; 2 and 10 mg/kg) was started 1 day prior to infection. Survival was monitored for 10 days.

A. fumigatus AF293 [3] = assay: Murine model of pulmonary aspergillosis (Example 19), terminal lung burden; format: in vivo, Aspergillus fumigatus; conditions: Micafungin 5 mg/kg IP Day −1
Method: as §1, with “temperature,” for “temperature and”, “hours.” for “hours. In addition, a 300 μL aliquot of the undiluted lung tissue homogenate was stored at −80° C. for possible optional assessment of burden by qPCR.”
2. Lung tissue burden data were analysed using the non-parametric Kruskal-Wallis test and if this was statistically significant all pairwise comparisons were analyzed (Conover-Inman).

A. fumigatus AF293 [4] = assay: Murine model of pulmonary aspergillosis (Example 19), survival
C. auris = assay: Murine model of disseminated candidiasis, C. auris infection, kidney CFU and survival; format: in vivo, Candida auris
[5] = tested on: C. albicans SC-5314 biofilms; assay: Mature phase biofilms (treatment), XTT metabolic activity and CSLM; format: cell-based, Candida albicans
[6] = Micafungin 5 mg/kg IP once, Day 1 pre-infection

Compound | Group Geometric mean (lung burden) ([1]; Micafungin 2 mg/kg IP Day 0) | Log10 Group Geometric mean (lung burden) ([1]; Micafungin 2 mg/kg IP Day 0) | Log10 reduction from vehicle control ([1]; Micafungin 2 mg/kg IP Day 0) | Group Geometric mean (lung burden) ([1]; Micafungin 2 mg/kg IP Day −1) | Log10 Group Geometric mean (lung burden) ([1]; Micafungin 2 mg/kg IP Day −1) | Log10 reduction from vehicle control ([1]; Micafungin 2 mg/kg IP Day −1) | survival (A. fumigatus AF293 [2]) | Group Geometric mean (lung burden) (A. fumigatus AF293 [3]) | Log10 Group Geometric mean (lung burden) (A. fumigatus AF293 [3]) | Log10 reduction from vehicle control (A. fumigatus AF293 [3]) | survival time post infection, range (A. fumigatus AF293 [4]; Micafungin 5 mg/kg IP once) | Mean Survival (A. fumigatus AF293 [4]; [6]) | Median Survival (A. fumigatus AF293 [4]; [6]) | survival (A. fumigatus AF293 [4]; micafungin 5 mg/kg once one day pre-infection) | percent survival at the end of the study (C. auris) | thickness of biofilms ([5]; fluconazole) | effect on mature biofilms ([5]; fluconazole 1 and 4 μg/ml, 24 h)
CCCCCOc1ccc(-c2cc(-c3ccc(C(=O)N[C@H]4C[C@@H](O)[C@@H](O)NC(=O)[C@@H]5[C@@H](O)[C@@H](C)CN5C(=O)[C@H]([C@H](O)CC(N)=O)NC(=O)[C@H]([C@H](O)[C@@H](O)c5ccc(O)c(OS(=O)(=O)O)c5)NC(=O)[C@@H]5C[C@@H](O)CN5C(=O)[C@H]([C@@H](C)O)NC4=O)cc3)no2)cc1 [Micafungin, micafungin] (X1-[Orn(4R-OH,5R-OH)]T[Hyp][hTyr(3S-OH,4S-OH,3'-OSO3H)][Gln(3R-OH)][Pro(3S-OH,4S-Me)]; lactam 1-C) | 1.08 × 10^4 CFU/g | 4.03 CFU/g | −0.26 CFU/g | 4.34 x 10^4 CFU/g | 4.64 CFU/g | −0.86 CFU/g | no survivors | 6.61 × 10^3 CFU/g | 3.82 CFU/g | 0.35 CFU/g | 71 to 162 h | 92 h and 92.0 h | 80 h and 80.0 h | did not show any improvement in survival | – | – | –
OC(Cn1cncn1)(Cn1cncn1)c1ccc(F)cc1F [fluconazole] | – | – | – | – | – | – | – | – | – | – | – | – | – | – | 0% | no effect | did not affect Candida biofilms
